In PubChem BioAssay AID1918942 (Molecular Pharmacology Branch, DTP, NCI, 2023):

System: 743489-274-T-PDC complex spheroid viability
Assay: Anticancer human tumor 743489-274-T-PDC patient-derived renal cell carcinoma cell line growth inhibition
Details: for IC50: curve of first compound; for viability, T/C: stronger effect = lower value
How it was run: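 Complex spheroids of tumor cells with HUVEC and human MSCs, exposed to iadademstat combined with other agents. Each agent tested in half-log steps from near clinical Cmax (else 10 microM top), DMSO ≤0.25%.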

[1] = second compound 0.1 µM, first compound 0.00949 µM
[2] = second compound 0.1 µM, first compound 0.03 µM
[3] = second compound 0.1 µM, first compound 0.0949 µM
[4] = second compound 0.1 µM, first compound 0.3 µM
[5] = second compound 0.1 µM, first compound 0.949 µM
[6] = second compound 0.1 µM, first compound 3 µM
[7] = second compound 0.316 µM, first compound 0.00949 µM
[8] = second compound 0.316 µM, first compound 0.03 µM
[9] = second compound 0.316 µM, first compound 0.0949 µM
[10] = second compound 0.316 µM, first compound 0.3 µM
[11] = second compound 0.316 µM, first compound 0.949 µM
[12] = second compound 0.316 µM, first compound 3 µM
[13] = second compound 1 µM, first compound 0.00949 µM
[14] = second compound 1 µM, first compound 0.03 µM
[15] = second compound 1 µM, first compound 0.0949 µM
[16] = second compound 1 µM, first compound 0.3 µM
[17] = second compound 1 µM, first compound 0.949 µM
[18] = second compound 1 µM, first compound 3 µM
[19] = second compound 3.16 µM, first compound 0.00949 µM
[20] = second compound 3.16 µM, first compound 0.03 µM
[21] = second compound 3.16 µM, first compound 0.0949 µM
[22] = second compound 3.16 µM, first compound 0.3 µM
[23] = second compound 3.16 µM, first compound 0.949 µM
[24] = second compound 3.16 µM, first compound 3 µM
[25] = second compound 10 µM, first compound 0.00949 µM
[26] = second compound 10 µM, first compound 0.03 µM
[27] = second compound 10 µM, first compound 0.0949 µM
[28] = second compound 10 µM, first compound 0.3 µM
[29] = second compound 10 µM, first compound 0.949 µM
[30] = second compound 10 µM, first compound 3 µM
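Note: spheroids exposed to compounds for 7 days before readout.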
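Throughout, for viability, T/C: 100% = DMSO vehicle control wells.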

| Compound | IC50 (second compound 0.1 µM) [µM] | IC50 (second compound 0.316 µM) [µM] | IC50 (second compound 1 µM) [µM] | IC50 (second compound 3.16 µM) [µM] | IC50 (second compound 10 µM) [µM] | viability, T/C [1] [%] | viability, T/C [2] [%] | viability, T/C [3] [%] | viability, T/C [4] [%] | viability, T/C [5] [%] | viability, T/C [6] [%] | viability, T/C [7] [%] | viability, T/C [8] [%] | viability, T/C [9] [%] | viability, T/C [10] [%] | viability, T/C [11] [%] | viability, T/C [12] [%] | viability, T/C [13] [%] | viability, T/C [14] [%] | viability, T/C [15] [%] | other results |
| --- | --- | --- | --- | --- | --- | --- | --- | --- | --- | --- | --- | --- | --- | --- | --- | --- | --- | --- | --- | --- | --- |
| NS(=O)(=O)OCC1CC(n2ccc3c(NC4CCc5ccccc54)ncnc32)CC1O (stereo not given) + NC1CC1c1ccc(-c2cccc(O)c2)cc1 | > 3 | > 3 | > 3 | > 3 | > 3 | 98 | 107 | 127 | 154 | 154 | 134 | 98.3 | 97.4 | 125 | 150 | 134 | 149 | 108 | 111 | 125 | viability, T/C [16]: 152%; viability, T/C [17]: 168%; viability, T/C [18]: 137%; viability, T/C [19]: 96.5%; viability, T/C [20]: 104%; viability, T/C [21]: 122%; viability, T/C [22]: 145%; viability, T/C [23]: 140%; viability, T/C [24]: 130%; viability, T/C [25]: 90%; viability, T/C [26]: 98.6%; viability, T/C [27]: 129%; viability, T/C [28]: 153%; viability, T/C [29]: 150%; viability, T/C [30]: 142% |
| Nc1ccccc1NC(=O)c1ccc(CNC(=O)OCc2cccnc2)cc1 + NC1CC1c1ccc(-c2cccc(O)c2)cc1 | 0.678 | 0.773 | 0.642 | 1.01 | 1.32 | 93.2 | 88.5 | 87.5 | 62.6 | 45.8 | 29.2 | 95.7 | 86.8 | 84.5 | 65.8 | 45.5 | 40.3 | 98.6 | 87.5 | 83.4 | viability, T/C [16]: 62.3%; viability, T/C [17]: 43.2%; viability, T/C [18]: 24.6%; viability, T/C [19]: 92.8%; viability, T/C [20]: 84.5%; viability, T/C [21]: 81.6%; viability, T/C [22]: 72.5%; viability, T/C [23]: 49%; viability, T/C [24]: 36.5%; viability, T/C [25]: 95.5%; viability, T/C [26]: 87.5%; viability, T/C [27]: 77.9%; viability, T/C [28]: 70.1%; viability, T/C [29]: 58.4%; viability, T/C [30]: 35.4% |
| O=C(C=Cc1cccc(S(=O)(=O)Nc2ccccc2)c1)NO + NC1CC1c1ccc(-c2cccc(O)c2)cc1 | 0.86 | 1.01 | 1.55 | 0.915 | 1.38 | 107 | 98.5 | 93 | 67.8 | 49.7 | 28.5 | 102 | 93.2 | 88 | 64.9 | 53.1 | 34 | 98.7 | 99.3 | 84.2 | viability, T/C [16]: 84.1%; viability, T/C [17]: 58.8%; viability, T/C [18]: 35.9%; viability, T/C [19]: 98.5%; viability, T/C [20]: 88.1%; viability, T/C [21]: 90.8%; viability, T/C [22]: 69%; viability, T/C [23]: 50.2%; viability, T/C [24]: 24.1%; viability, T/C [25]: 98.9%; viability, T/C [26]: 97%; viability, T/C [27]: 87.8%; viability, T/C [28]: 81.4%; viability, T/C [29]: 56.6%; viability, T/C [30]: 33.9% |
